The record followed here is ChEMBL document CHEMBL1152051, “Synthesis and preliminary pharmacological evaluation of 2-benzyloxy substituted aryl ketones as 5-HT4 receptor antagonists” (Bioorg Med Chem Lett, 1994).

In assay [1] the target is 5-hydroxytryptamine receptor 4 (Rattus norvegicus, UniProt Q62758). Put plainly: Compound was tested against 5-HT4 receptor through agonism of 5-HT mediated relaxation of rat, carbachol contracted esophageal muscularis mucosae. Format: functional.
Assay [2] concerns the target 5-hydroxytryptamine receptor 4 (Rattus norvegicus) (UniProt Q62758). Description: Compound was tested against 5-HT4 receptor through antagonism of 5-HT mediated relaxation of rat, carbachol contracted esophageal muscularis mucosae. Format: functional.
Assay [3] concerns the target 5-hydroxytryptamine receptor 4 (Cavia porcellus, UniProt O70528). Put plainly: Compound was tested for binding affinity against 5-HT4 receptor in guinea pig striata using [3H]GR-113808 as radioligand.

Chain of 5-hydroxytryptamine receptor 4 (Cavia porcellus, UniProt O70528) (O70528 whole entry): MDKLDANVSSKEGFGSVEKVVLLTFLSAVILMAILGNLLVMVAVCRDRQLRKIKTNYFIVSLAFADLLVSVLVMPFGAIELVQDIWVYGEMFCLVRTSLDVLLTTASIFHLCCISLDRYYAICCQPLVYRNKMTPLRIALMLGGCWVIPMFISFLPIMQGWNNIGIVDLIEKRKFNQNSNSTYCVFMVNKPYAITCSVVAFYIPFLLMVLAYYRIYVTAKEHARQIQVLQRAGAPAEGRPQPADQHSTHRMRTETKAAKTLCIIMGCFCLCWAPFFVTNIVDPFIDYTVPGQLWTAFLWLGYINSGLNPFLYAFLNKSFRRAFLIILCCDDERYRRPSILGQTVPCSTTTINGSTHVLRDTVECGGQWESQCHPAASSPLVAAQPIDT
Chain of 5-hydroxytryptamine receptor 4 (Rattus norvegicus) (Q62758 whole entry): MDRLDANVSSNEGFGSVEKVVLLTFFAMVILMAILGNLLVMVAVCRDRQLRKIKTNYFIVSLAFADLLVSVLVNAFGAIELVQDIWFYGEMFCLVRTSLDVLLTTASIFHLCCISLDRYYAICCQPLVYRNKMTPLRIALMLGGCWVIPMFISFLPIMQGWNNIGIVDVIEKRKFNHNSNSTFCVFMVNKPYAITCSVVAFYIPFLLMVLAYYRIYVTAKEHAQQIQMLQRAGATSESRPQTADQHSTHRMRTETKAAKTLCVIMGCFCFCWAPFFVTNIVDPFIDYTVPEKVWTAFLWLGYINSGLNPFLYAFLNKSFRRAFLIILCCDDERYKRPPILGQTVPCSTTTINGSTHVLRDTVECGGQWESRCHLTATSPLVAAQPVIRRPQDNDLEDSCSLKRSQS
Chain of 5-hydroxytryptamine receptor 4 (Rattus norvegicus, UniProt Q62758) (Q62758 whole entry): as above

As usually defined, the EC50 is the concentration that produces a half-maximal response. Lower therefore signals higher potency in that assay. On to `COc1cc(N)c(Cl)cc1C(=O)CCCCN1CCCCC1`, for which the EC50 in assay [1] is 39.8 nM. What is called pKb is −log10 of the Kb, conventionally taken in molar units. A lower pKb goes with a large Kb. `COc1cc(COc2cc(N)c(Cl)cc2C(=O)CCCCN2CCC(NS(C)(=O)=O)CC2)cc(OC)c1` yielded a pKb in assay [2] of 8.4. Usually Ki stands for the dissociation constant of the complex between target and ligand, obtained from inhibition or displacement. A lower Ki goes with a stronger hold on the target. For `COc1cc(COc2cc(N)c(Cl)cc2C(=O)CCC2CCN(CCCNS(C)(=O)=O)CC2)cc(OC)c1`, the pKb in assay [2] turned out to be 8.8. The same compound gave a Ki in assay [3] of 0.339 nM. With `COc1ccc(COc2cc(N)c(Cl)cc2C(=O)CCCCN2CCCCC2)cc1`, the pKb in assay [2] was determined as 8.4.

Consider `COc1cc(COc2cc(N)c(Cl)cc2C(=O)CCC2CCN(CCN(C)S(C)(=O)=O)CC2)cc(OC)c1`, for which the pKb in assay [2] was found to be 9.1. Besides, in assay [3], the Ki was 0.468 nM. Compound `CS(=O)(=O)NCCN1CCC(CCC(=O)c2cc(Cl)c(N)cc2OCc2ccccc2)CC1` returned a pKb in assay [2] of 8.1. In assay [3], this compound had a Ki of 1.78 nM. In assay [3], `CCCCN1CCC(COC(=O)c2cc(Cl)c(N)c3c2OCCO3)CC1` gave a Ki of 0.0129 nM. This lies in the picomolar range. As for `COc1cc(COc2cc(N)c(Cl)cc2C(=O)CCCCN2CCC(CCNS(C)(=O)=O)CC2)cc(OC)c1`, in assay [2], the negative-log Kb (pKb) was determined as 8.1. Same read-out and setting: the same measure for `CCCC1CCN(CCCCC(=O)c2cc(Cl)c(N)cc2OCc2cc(OC)cc(OC)c2)CC1`: 7.7. The same measure, in the same setting: the same measure for `COc1cc(COc2cc(N)c(Cl)cc2C(=O)CCCCN2CCC(NC(N)=O)CC2)cc(OC)c1`: 8.5; for `COc1cc(COc2cc(N)c(Cl)cc2C(=O)CCCCN2CCC(O)CC2)cc(OC)c1`: 8.3. Same read-out and setting: the same measure for `CCOc1cc(N)c(Cl)cc1C(=O)CCCCN1CCCCC1`: under 7; for `COc1ccc(COc2cc(N)c(Cl)cc2C(=O)CCCCN2CCCCC2)cc1OC`: 8.5; for `COc1cc(COc2cc(N)c(Cl)cc2C(=O)CCCCN2CCCCC2)cc(OC)c1`: 8.5.

Turning to `COc1cc(COc2cc(N)c(Cl)cc2C(=O)CCCCN2CCC(OC)CC2)cc(OC)c1`, the negative-log Kb (pKb) in assay [2] was determined as 8.4. In assay [2], `COc1ccc(CCOc2cc(N)c(Cl)cc2C(=O)CCCCN2CCCCC2)cc1OC` gave a negative logarithm of the Kb (pKb) of 6.8.

Regarding `COc1cc(COc2cc(N)c(Cl)cc2C(=O)CCCCN2CCC(CNS(C)(=O)=O)CC2)cc(OC)c1`, the pKb in assay [2] worked out at 8.9. In the case of `CCCOc1cc(N)c(Cl)cc1C(=O)CCCCN1CCCCC1`, in assay [1], a half-maximal response (EC50) required 2000 nM.

Take `COc1cc(COc2cc(N)c(Cl)cc2C(=O)CCCCN2CCC(C)CC2)cc(OC)c1`: the pKb in assay [2] is 8.3. `COc1cc(COc2cc(N)c(Cl)cc2C(=O)CCC2CCN(CCNS(C)(=O)=O)CC2)cc(OC)c1` returned a pKb in assay [2] of 9.2. In assay [3], this compound showed a Ki of 0.741 nM. For `CCCCN1CCC(CCC(=O)c2cc(Cl)c(N)cc2OCc2cc(OC)cc(OC)c2)CC1` the same measures were 8.9 and 0.479 nM. `Cn1cc(C(=O)OCC2CCN(CCNS(C)(=O)=O)CC2)c2ccccc21`: in assay [2], the pKb came out at 9. As for `COc1cc(COc2cc(N)c(Cl)cc2C(=O)CCCCN2CCC(C(N)=O)CC2)cc(OC)c1`, the negative logarithm of the Kb (pKb) in assay [2] stood at 8.4. Same read-out and setting: the same measure for `COc1cc(COc2cc(N)c(Cl)cc2C(=O)CCCCN2CCC(c3ccccc3)CC2)cc(OC)c1`: 7.7. `CCCCCN1CCC(CCC(=O)c2cc(Cl)c(N)cc2OCc2cc(OC)cc(OC)c2)CC1` returned a pKb in assay [2] of 9.1. This compound gave a Ki in assay [3] of 0.813 nM.
